System: P12-Ichikawa
Test: cell viability relative to DMSO control; higher = less cytotoxic
Conditions: 48 h
Procedure, shortened: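 Viability, reported as a per-plate percentage of DMSO wells with cell-free wells as background, came from CellTiter-Glo One luminescence. Reading took place after 48 h at 37°C. Before that, NOMO1 or SEM (500 cells/well) or P12-Ichikawa (1000 cells/well) leukemia cells, adapted for at least four passages in each medium, were seeded in 1536-well plates (5 μl) and pin-dosed with library compounds in DMSO, 47 μM to 0.79 nM over 11 threefold points.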

[1] = HPLM + 10% dialyzed FBS, 0.000781 µM
[2] = HPLM + 10% dialyzed FBS, 0.00234 µM
[3] = HPLM + 10% dialyzed FBS, 0.00702 µM
[4] = HPLM + 10% dialyzed FBS, 0.0211 µM
[5] = HPLM + 10% dialyzed FBS, 0.0632 µM
[6] = HPLM + 10% dialyzed FBS, 0.19 µM
[7] = HPLM + 10% dialyzed FBS, 0.569 µM
[8] = HPLM + 10% dialyzed FBS, 1.71 µM
[9] = HPLM + 10% dialyzed FBS, 5.12 µM
[10] = HPLM + 10% dialyzed FBS, 15.4 µM
[11] = HPLM + 10% dialyzed FBS, 46.1 µM
[12] = RPMI 5 mM glucose + 10% FBS, 0.000781 µM
[13] = RPMI 5 mM glucose + 10% FBS, 0.00234 µM
[14] = RPMI 5 mM glucose + 10% FBS, 0.00702 µM
[15] = RPMI 5 mM glucose + 10% FBS, 0.0211 µM
[16] = RPMI 5 mM glucose + 10% FBS, 0.0632 µM
[17] = RPMI 5 mM glucose + 10% FBS, 0.19 µM
[18] = RPMI 5 mM glucose + 10% FBS, 0.569 µM
[19] = RPMI 5 mM glucose + 10% FBS, 1.71 µM
[20] = RPMI 5 mM glucose + 10% FBS, 5.12 µM
[21] = RPMI 5 mM glucose + 10% FBS, 15.4 µM
[22] = RPMI 5 mM glucose + 10% FBS, 46.1 µM
[23] = RPMI 5 mM glucose + 10% dialyzed FBS, 0.000781 µM
[24] = RPMI 5 mM glucose + 10% dialyzed FBS, 0.00234 µM
[25] = RPMI 5 mM glucose + 10% dialyzed FBS, 0.00702 µM
[26] = RPMI 5 mM glucose + 10% dialyzed FBS, 0.0211 µM
[27] = RPMI 5 mM glucose + 10% dialyzed FBS, 0.0632 µM
[28] = RPMI 5 mM glucose + 10% dialyzed FBS, 0.19 µM
[29] = RPMI 5 mM glucose + 10% dialyzed FBS, 0.569 µM
[30] = RPMI 5 mM glucose + 10% dialyzed FBS, 1.71 µM
[31] = RPMI 5 mM glucose + 10% dialyzed FBS, 5.12 µM
[32] = RPMI 5 mM glucose + 10% dialyzed FBS, 15.4 µM
[33] = RPMI 5 mM glucose + 10% dialyzed FBS, 46.1 µM

CC[C@H]1/C=C\C=C/C[C@@H](C)[C@H](O)[C@@](C)(O)C(=O)[C@@H](C)[C@H](O)[C@@H](C)C(=O)[C@@H](C)[C@H](O)[C@@H](C)/C=C/C(=O)O[C@@H]2[C@H](C)[C@H](CC1)O[C@]1(CC[C@H](C)[C@H](C[C@@H](C)O)O1)[C@H]2C
cell viability [1]: 91.4% | cell viability [2]: 102% | cell viability [3]: 98.8% | cell viability [4]: 102% | cell viability [5]: 89.5% | cell viability [6]: 107% | cell viability [7]: 109% | cell viability [8]: 67.4% | cell viability [9]: 57.1% | cell viability [10]: 41.4% | cell viability [11]: 4.23% | cell viability [12]: 90.5% | cell viability [13]: 96.7% | cell viability [14]: 75% | cell viability [15]: 110% | cell viability [16]: 94.1% | cell viability [17]: 109% | cell viability [18]: 108% | cell viability [19]: 64.4% | cell viability [20]: 58.9% | cell viability [21]: 53.7% | cell viability [22]: 5.47% | cell viability [23]: 84.9% | cell viability [24]: 102% | cell viability [25]: 92.7% | cell viability [26]: 89.9% | cell viability [27]: 101% | cell viability [28]: 99.8% | cell viability [29]: 92.2% | cell viability [30]: 59.1% | cell viability [31]: 45.9% | cell viability [32]: 41.8% | cell viability [33]: 5.21%

NC(CO)(CO)CCc1ccc(Sc2cccc(OCc3ccccc3)c2)cc1Cl
cell viability [1]: 99.1% | cell viability [2]: 101% | cell viability [3]: 110% | cell viability [4]: 114% | cell viability [5]: 115% | cell viability [6]: 122% | cell viability [7]: 88.5% | cell viability [8]: 106% | cell viability [9]: 76.2% | cell viability [10]: 18.4% | cell viability [11]: 6.24% | cell viability [12]: 91.8% | cell viability [13]: 99.7% | cell viability [14]: 101% | cell viability [15]: 111% | cell viability [16]: 102% | cell viability [17]: 102% | cell viability [18]: 86.4% | cell viability [19]: 104% | cell viability [20]: 72.1% | cell viability [21]: 34.9% | cell viability [22]: 5.17% | cell viability [23]: 101% | cell viability [24]: 112% | cell viability [25]: 99.6% | cell viability [26]: 116% | cell viability [27]: 113% | cell viability [28]: 109% | cell viability [29]: 89.9% | cell viability [30]: 100% | cell viability [31]: 70.3% | cell viability [32]: 45.7% | cell viability [33]: 5.62%

C[C@@H]1COCCN1C\2=C\C(=O)N\3CC[C@H](N(CC4=CN=CC(=C4)Cl)C3=N2)C(F)(F)F
cell viability [1]: 94% | cell viability [2]: 101% | cell viability [3]: 98.9% | cell viability [4]: 94.3% | cell viability [5]: 97.5% | cell viability [6]: 103% | cell viability [7]: 101% | cell viability [8]: 104% | cell viability [9]: 85% | cell viability [10]: 32.7% | cell viability [11]: 22.5% | cell viability [12]: 91.4% | cell viability [13]: 94.1% | cell viability [14]: 95.7% | cell viability [15]: 89.2% | cell viability [16]: 98.3% | cell viability [17]: 107% | cell viability [18]: 97.2% | cell viability [19]: 108% | cell viability [20]: 76.5% | cell viability [21]: 40% | cell viability [22]: 17.5% | cell viability [23]: 99.4% | cell viability [24]: 102% | cell viability [25]: 106% | cell viability [26]: 98.8% | cell viability [27]: 107% | cell viability [28]: 99.6% | cell viability [29]: 114% | cell viability [30]: 99.8% | cell viability [31]: 86% | cell viability [32]: 30.8% | cell viability [33]: 17.6%

CC(=O)N1CCN(c2ccc(OCc3nn(C)c(C)c3-c3cccc4c(CCCOc5cccc6ccccc56)c(C(=O)O)n(Cc5cccnc5)c34)cc2)CC1
cell viability [1]: 108% | cell viability [2]: 116% | cell viability [3]: 123% | cell viability [4]: 122% | cell viability [5]: 120% | cell viability [6]: 119% | cell viability [7]: 124% | cell viability [8]: 122% | cell viability [9]: 108% | cell viability [10]: 31.8% | cell viability [11]: 9.79% | cell viability [12]: 98.4% | cell viability [13]: 118% | cell viability [14]: 123% | cell viability [15]: 123% | cell viability [16]: 124% | cell viability [17]: 125% | cell viability [18]: 137% | cell viability [19]: 135% | cell viability [20]: 123% | cell viability [21]: 28.2% | cell viability [22]: 11% | cell viability [23]: 107% | cell viability [24]: 124% | cell viability [25]: 121% | cell viability [26]: 128% | cell viability [27]: 128% | cell viability [28]: 123% | cell viability [29]: 136% | cell viability [30]: 129% | cell viability [31]: 134% | cell viability [32]: 91.1% | cell viability [33]: 25.5%

From the supplement of paper PMC11451515
